Values quoted from earlier work, collected in patent publication EP2361081B1, “MULTI PORTION INTRA-ORAL DOSAGE FORM AND USE THEREOF” (McNeil AB, priority 2008, dated 2010).
Like-named read-outs stand apart in the source and are kept apart here. Peptide text beside a SMILES is read from it.

Legend:
[1] = pKa value lying in interval 8 - 9,6; taken from Handbook of Chemistry and Physics, 85th edition
[2] = stated in the context of absorption from the oral cavity
[3] = in water; footnote b) = low or uncertain value, taken from Handbook of Chemistry and Physics, 85th edition

| pKa value (in interval 8 - 9,6) [1] | Solubility in water, g/kg [3] | Structure (SMILES) | other results |
| --- | --- | --- | --- |
| 8,70 | Very soluble | N[C@@H](CS(=O)(=O)O)C(=O)O [Cysteic acid] |  |
| 9,58 |  | N[C@@H](CCC(=O)O)C(=O)O [Glutamic acid] |  |
| 9,00 |  | NC(=O)CC[C@H](N)C(=O)O [Glutamine] | Solubility in water [3]: 42 g/kg |
| 9,58 |  | NCC(=O)O [Glycine] |  |
| 9,60 | 34,2 g/kg | CC[C@H](C)[C@H](N)C(=O)O [Isoleucine] |  |
|  | 22,0 g/kg | CC(C)C[C@H](N)C(=O)O [Leucine] |  |
| 9,05 |  | N[C@@H](CO)C(=O)O [Serine] |  |
| 8,96 |  | C[C@@H](O)[C@H](N)C(=O)O [Threonine] |  |
| 9,52 | 88,5 g/kg | CC(C)[C@H](N)C(=O)O [Valine] |  |

The next lines start with the molecule.

| Structure (SMILES) | pKa value (in interval 8 - 9,6) [1] | Solubility in water, g/kg [3] | other results |
| --- | --- | --- | --- |
| NC(=O)C[C@H](N)C(=O)O [Aspargine] | 8,73 |  |  |
| N[C@@H](Cc1c[nH]cn1)C(=O)O [Histidine] | 9,09 | 43,5 g/kg |  |
| NCCCC[C@H](N)C(=O)O [Lysine] | 9,16 |  | Solubility in water, g/kg: Very soluble ^a)b) |
| CSCC[C@H](N)C(=O)O [Methionine] | 9,08 |  | Solubility in water [3]: 56 g/kg |
| NCC(=O)NCC(=O)O [N-Glycylglycine] (H-Gly-Gly-OH) | 8,10 |  |  |
| N[C@@H](Cc1ccccc1)C(=O)O [Phenylalanine] | 9,09 | 27,9 g/kg |  |
| CN1CCCC1c1cccnc1 (stereo not drawn) [nicotine, 3-(1-methyl-2-pyrrolidinyl)-pyridine] |  |  | pKa of nicotine [2]: about 7.8 |
